Source: ChEMBL document CHEMBL1131495, “2,4-Diamino-6,7-dihydro-5H-cyclopenta[d]pyrimidine analogues of trimethoprim as inhibitors of Pneumocystis carinii and Toxoplasma gondii dihydrofolate reductase” (J Med Chem, 1998)

Legend:
[1] = target: T1, Bifunctional dihydrofolate reductase-thymidylate synthase (Toxoplasma gondii, UniProt Q07422); experiment: Compound was tested for inhibition activity against Toxoplasma gondii (Toxoplasma gondii) Dihydrofolate reductase
T1 sequence (Q07422 whole entry): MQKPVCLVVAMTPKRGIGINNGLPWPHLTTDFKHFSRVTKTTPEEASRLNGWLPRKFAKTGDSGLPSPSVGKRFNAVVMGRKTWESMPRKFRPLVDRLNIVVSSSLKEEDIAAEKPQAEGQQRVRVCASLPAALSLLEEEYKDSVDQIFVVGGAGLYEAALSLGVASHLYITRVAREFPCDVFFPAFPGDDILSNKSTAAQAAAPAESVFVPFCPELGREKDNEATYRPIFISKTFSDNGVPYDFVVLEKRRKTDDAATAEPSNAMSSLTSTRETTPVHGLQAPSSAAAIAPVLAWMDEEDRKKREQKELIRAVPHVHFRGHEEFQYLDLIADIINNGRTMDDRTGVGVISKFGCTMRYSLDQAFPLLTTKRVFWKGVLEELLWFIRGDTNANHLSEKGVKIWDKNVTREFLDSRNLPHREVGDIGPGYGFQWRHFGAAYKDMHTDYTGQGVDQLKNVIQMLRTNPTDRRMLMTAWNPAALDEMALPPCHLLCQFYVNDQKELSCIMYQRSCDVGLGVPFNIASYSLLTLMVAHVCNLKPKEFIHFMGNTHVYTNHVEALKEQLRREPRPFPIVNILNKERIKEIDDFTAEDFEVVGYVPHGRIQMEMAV

[2] = Selectivity ratio is the ratio between the IC50 values of rat liver and Pneumocystis carinii
Dihydrofolate reductase [3] = target: T2, Dihydrofolate reductase (Pneumocystis carinii, UniProt P16184)
T2 sequence (P16184 whole entry): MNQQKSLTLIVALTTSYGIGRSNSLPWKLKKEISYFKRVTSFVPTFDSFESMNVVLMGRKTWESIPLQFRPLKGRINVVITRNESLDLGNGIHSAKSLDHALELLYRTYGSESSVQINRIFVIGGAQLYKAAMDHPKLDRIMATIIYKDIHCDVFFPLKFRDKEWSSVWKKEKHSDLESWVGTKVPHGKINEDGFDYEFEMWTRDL
Description: Compound was tested for inhibition activity against pneumocystis carinii (Pneumocystis carinii) Dihydrofolate reductase

Dihydrofolate reductase [4] = target: T3, Dihydrofolate reductase (Rattus norvegicus, UniProt Q920D2)
T3 sequence (Q920D2 whole entry): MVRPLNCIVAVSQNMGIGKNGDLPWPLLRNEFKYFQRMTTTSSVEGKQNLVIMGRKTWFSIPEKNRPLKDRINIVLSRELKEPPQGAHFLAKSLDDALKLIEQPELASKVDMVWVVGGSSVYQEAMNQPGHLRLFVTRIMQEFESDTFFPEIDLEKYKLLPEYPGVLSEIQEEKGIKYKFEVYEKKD
Description: Compound was tested for inhibition activity against rat liver lipophilic Dihydrofolate reductase (DHFR).

[5] = Selectivity ratio is the ratio between the IC50 values of rat liver and Toxoplasma gondii

| SMILES | IC50 [1] [nM] | Selectivity ratio [2] | IC50 (Dihydrofolate reductase [3]) [nM] | IC50 (Dihydrofolate reductase [4]) [nM] | Selectivity ratio [5] |
| --- | --- | --- | --- | --- | --- |
| COc1cc(CCCC2CCc3nc(N)nc(N)c32)cc(OC)c1OC (stereo not given) | 140 | 0.17 | 1300 | 220 | 1.57 |
| COc1cc(CCC2CCc3nc(N)nc(N)c32)cc(OC)c1OC (stereo not given) | 140 | 0.28 | 1800 | 510 | 3.64 |
| COc1ccc(OC)c(Cc2cnc3nc(N)nc(N)c3c2C)c1 [PIRITREXIM] |  |  |  | 15 |  |
| COc1cc(CC2CCc3nc(N)nc(N)c32)cc(OC)c1OC (stereo not given) | 21000 |  | > 32000 | 69000 | 3.29 |
